For test [1], the target named is RORC2 ligand binding domain (6-His-RORC2 LBD) (Homo sapiens (Human), UniProt P51449). Briefly: Assay of co-activator recruitment by TR-FRET. It is filed as biochemical. Conditions: 6-His-RORC2 LBD / biotin-coactivator peptide SRC1-2 interaction, 3 hr room temperature. As for the experimental part: The activity of compound of the invention can be determined by a co-activator recruitment by TR-FRET (time-resolved fluorescence resonance energy transfer) assay. […] When receptor and coactivator are bound to each other, upon shining light at 337 nm on the sample, the Europium emits fluorescence that excites APC due to close proximity (FRET) and this signal is measured at 665 nm. Due to the long lasting fluorescence emission of Europium, the non-specific, short-lived fluorescence is time-resolved (TR) from the fluorescence of interest. Inhibitors of the interaction of receptor and coactivator peptide are detected by a decrease in TR-FRET signal.
Specifically, in one embodiment the aforementioned assay was performed as outlined below. The assay was carried out in black polystyrene, 384-well plates in a total assay volume of 50.5 μL. The assay buffer contained 50 mM TRIS-HCL pH 7.5, 1 mM NaCl, 2 mM MgCl2, 0.5 mg/mL bovine serum albumin, and 5 mM dithiothreitol.

Test [2] has as its system IL-17 production from human Th17 cells. The test is described as follows: Assay of IL-17 production from human Th17 cells. The format is cell-based. Conditions: 144 h; IL-17A in supernatant by ELISA (MSD) after 6 days, human CD4+ T cells differentiated into Th17; read-out: IC50. Here is the method: The activity of compound of the invention can be also be determined by an IL-17 production from human Th17 cells assay. In general, this assay measures blockade of IL-17 production, the signature cytokine of T helper 17 (Th17) cells, by compounds. Purified human CD4+ T cells are stimulated with anti-CD3+anti-CD28 and incubated with a cytokine cocktail that induce their differentiation into Th17 in the absence or presence of various concentrations of compound. After 6 days, IL-17A concentration is measured in the cell culture supernatant with an ELISA kit (MSD).
Preparation of human CD4+ T cells. CD4+ T cells were purified from buffy coats from healthy donors (obtained from Massachusetts General Hospital) by negative selection the following procedure: Mixing 25 mL of blood with 1 mL of Rosette Sep CD4+ T cell enrichment cocktail (StemCell Technologies) followed by application of a layer of 14 mL Ficoll Paque Plus (Amersham GE Healthcare) and subsequent centrifugation at 1200 g for 20 min at room temperature. The Ficoll layer was then harvested and washed with phosphate saline buffer containing 2% (v/v) fetal bovine serum and cells were resuspended with RPMI medium containing 10% (v/v) fetal bovine serum and 10% (v/v) DMSO, frozen and kept in LN2 until used.
[…] Serial dilutions of compounds of the invention are prepared at 10× final concentration in X-Vivo15 medium containing 3% (v/v) DMSO.
On the second day of the assay, a 384-well tissue culture plate was coated with 10 μg/mL anti-hCD3 (eBioscience) at 50 μL/well. After 2 hr at 37° C., the supernatant is discarded and the coated plates are kept in a sterile tissue culture hood.
The cytokine plus anti-CD28 cocktail with CD4+ cells is prepared such that the cocktail is diluted 10-fold and cell density is 0.22×10^6/mL. The mixture is incubated 1 hr at 37° C.
90 μL (20,000 cells) dispensed per well in the anti-hCD3 coated plate prepared as noted above.
10 μL 10× compound is added per well (final DMSO=0.3%) from the compound plate that was previously prepared, followed by 6 days of incubation in a tissue culture vessel in a humidified chamber at 37° C. and 5% CO2.
Measurement is carried out in a Sector Imager 6000 by the same manufacturer. Signal units from the instrument are converted to pg/mL using a calibration curve with known amounts of IL-17A. IC50 values of test compounds (Table 2) are determined by the non-linear regression analysis of dose response curves.
For orientation: ELISA stands for enzyme-linked immunosorbent assay.

A word on the IC50: it is the concentration that inhibits the measured activity by half.

Chain of RORC2 ligand binding domain (6-His-RORC2 LBD) (P51449 269-508): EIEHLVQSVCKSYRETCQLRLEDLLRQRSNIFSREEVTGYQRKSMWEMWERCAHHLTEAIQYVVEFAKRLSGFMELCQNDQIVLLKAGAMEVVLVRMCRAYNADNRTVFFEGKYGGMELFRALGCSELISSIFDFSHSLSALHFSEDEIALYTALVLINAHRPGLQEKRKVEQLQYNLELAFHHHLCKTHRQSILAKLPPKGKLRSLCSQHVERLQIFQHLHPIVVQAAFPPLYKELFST

On to `Cc1cccc(F)c1C(=O)N1CCC(c2cn(C)c3ccc(NS(=O)(=O)c4ccc(F)cc4)cc23)CC1` [Example 15, 4-fluoro-N-(3-(1-(2-fluoro-6-methylbenzoyl)piperidin-4-yl)-1-methyl-1H-indol-5-yl)benzenesulfonamide], for which the figures for the half-maximal inhibitory concentration (IC50) in test [1] and in test [2] were 6.8 nM and 189 nM, respectively.

Turning to `Cn1cc(C2CCN(C(=O)C3CCC3)CC2)c2cc(NS(=O)(=O)c3ccc(F)cc3)ccc21` [Example 11, N-(3-(1-(cyclobutanecarbonyl)piperidin-4-yl)-1-methyl-1H-indol-5-yl)-4-fluorobenzenesulfonamide], the IC50 was 28.8 nM in test [1] and 148 nM in test [2].

Regarding `CC(CC(=O)N1CCC(c2cn(C)c3ccc(NS(=O)(=O)c4ccc(F)cc4)cc23)CC1)C(F)(F)F` (centres unmarked) [Example 9, 4-fluoro-N-(1-methyl-3-(1-(4,4,4-trifluoro-3-methylbutanoyl)piperidin-4-yl)-1H-indol-5-yl)benzenesulfonamide], the results for the IC50 in test [1] and in test [2] were 14.8 nM and 99.1 nM, respectively.

In the case of `Cn1cc(C2CCN(C(=O)CC3CC3)CC2)c2cc(NS(=O)(=O)c3ccc(F)cc3)ccc21` [Example 13, N-(3-(1-(2-Cyclopropylacetyl)piperidin-4-yl)-1-methyl-1H-indol-5-yl)-4-fluorobenzenesulfonamide], the IC50 came out at 16.9 nM in test [1] and 310 nM in test [2].

Take `CC(C)C(=O)N1CC[C@@H](c2cn(C)c3ccc(NS(=O)(=O)c4ccc(F)cc4)cc23)CC1(C)C` (single isomer, unassigned) [Example 18]: the concentration for half-maximal inhibition (IC50) in test [1] came to 7 nM; in test [2] it was 19 nM.

For `CC(C)[C@H](C)C(=O)N1CCC(c2cn(C)c3ccc(NS(=O)(=O)c4ccc(F)cc4)cc23)CC1` [Example 16, (S)-N-(3-(1-(2,3-dimethylbutanoyl)pipendin-4-yl)-1-methyl-1H-indol-5-yl)-4-fluorobenzenesulfonamide], the results for the IC50 in test [1] and in test [2] were 3.1 nM and 53.8 nM, respectively.

For `Cn1cc(C2CCN(C(=O)C3CCCC3)CC2)c2cc(NS(=O)(=O)c3ccccc3F)ccc21` [Example 17, N-(3-(1-(cyclopentanecarbonyl)piperidin-4-yl)-1-methyl-1H-indol-5-yl)-2-fluorobenzenesulfonamide], the half-maximal inhibitory concentration (IC50) was found to be 5.9 nM in test [1] and 114 nM in test [2].

In the case of `C[C@H]1CN(C(=O)[C@H](C)C(C)(C)C)CC[C@H]1c1cn(C)c2ccc(NS(=O)(=O)c3ccc(F)cc3)cc12` [Example 1, 4-fluoro-N-(1-methyl-3-((3R,4R)-3-methyl-1-((R)-2,3,3-trimethylbutanoyl)piperidin-4-yl)-1H-indol-5-yl)benzenesulfonamide], the 50% inhibitory concentration (IC50) in test [1] was 8.2 nM; in test [2], 13.5 nM.

Turning to `C[C@@H](C(=O)N1CCC(c2cn(C)c3ccc(NS(=O)(=O)c4ccc(F)cc4)cc23)CC1)C12CC(C1)C2` [Example 31, (R)-N-(3-(1-(2-(bicyclo[1.1.1]pentan-1-yl)propanoyl)piperidin-4-yl)-1-methyl-1H-indol-5-yl)-4-fluorobenzenesulfonamide], the values for the half-maximal inhibitory concentration (IC50) in test [1] and in test [2] were 2.4 nM and 26 nM, respectively.

As to `Cn1cc([C@@H]2CCN(C(=O)C3CCCC3)C(C)(C)C2)c2cc(NS(=O)(=O)c3ccc(F)cc3)ccc21` (single isomer, unassigned) [Example 19], the 50% inhibitory concentration (IC50) in test [1] came out at 3.7 nM; in test [2], 191 nM.

The values above are taken from US10385036B2, “Sulfonamide-substituted indole modulators of RORC2 and methods of use thereof” (Pfizer Inc., priority 2015, dated 2019).
